The supplement of paper PMC10307832

Columns and labels:
Assay in all cases: relative viability (nuclei count vs DMSO), 5 days (fraction); higher = more cells survive
ChaGo-K-1 = tested on: ChaGo-K-1
Summary of the method: (§1)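 Five library-drug doses in √10 steps were combined with a fixed anchor-drug dose, or a single drug was given alone, by pin tool to lung cancer cell lines in 1536-well plates the day after seeding. Nuclei were stained and counted after 5 days. Relative viability is the nuclei count in treated wells over that in vehicle wells, taken as the median of duplicate plates.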

LK-2 = tested on: LK-2
Summary of the method: as §1

HCC-827 = tested on: HCC-827
Summary of the method: as §1

NCI-H2126 = tested on: NCI-H2126
Summary of the method: as §1

NCI-H2085 = tested on: NCI-H2085
Summary of the method: as §1

NCI-H23 = tested on: NCI-H23
Summary of the method: as §1

EPLC-272H = tested on: EPLC-272H
Summary of the method: as §1

LU99A = tested on: LU99A
Summary of the method: as §1

NCI-H1666 = tested on: NCI-H1666
Summary of the method: as §1

NCI-H1975 = tested on: NCI-H1975
Summary of the method: as §1

HCC-78 = tested on: HCC-78
Summary of the method: as §1

LOU-NH91 = tested on: LOU-NH91
Summary of the method: as §1

LXF-289 = tested on: LXF-289
Summary of the method: as §1

LCLC-103H = tested on: LCLC-103H
Summary of the method: as §1

EMC-BAC-2 = tested on: EMC-BAC-2
Summary of the method: as §1

NCI-H322M = tested on: NCI-H322M
Summary of the method: as §1

NCI-H2405 = tested on: NCI-H2405
Summary of the method: as §1

SW 1573 = tested on: SW 1573
Summary of the method: as §1

RERF-LC-KJ = tested on: RERF-LC-KJ
Summary of the method: as §1

NCI-H1563 = tested on: NCI-H1563
Summary of the method: as §1

SW 900 = tested on: SW 900
Summary of the method: as §1

NCI-H3122 = tested on: NCI-H3122
Summary of the method: as §1

SK-LU-1 = tested on: SK-LU-1
Summary of the method: as §1

For NC(=O)Nc1cc(-c2cccc(F)c2)sc1C(=O)N[C@H]1CCCNC1 [AZD7762] + Nc1nc2[nH]cc(CCc3ccc(C(=O)N[C@@H](CCC(=O)O)C(=O)O)cc3)c2c(=O)[nH]1 [Pemetrexed] (partner 0.2 µM), the relative viability (ChaGo-K-1; first compound 0.01 µM) was 0.26, the relative viability (ChaGo-K-1; first compound 0.03162 µM) was 0.267 and the relative viability (ChaGo-K-1; first compound 0.1 µM) was 0.259. The relative viability (ChaGo-K-1; first compound 0.3162 µM) was 0.243, the relative viability (ChaGo-K-1; first compound 1 µM) was 0.256 and the relative viability (LK-2; first compound 0.01 µM) was 0.316. It also gave a relative viability (LK-2; first compound 0.03162 µM) of 0.358, a relative viability (LK-2; first compound 0.1 µM) of 0.274 and a relative viability (LK-2; first compound 0.3162 µM) of 0.214. The relative viability (LK-2; first compound 1 µM) was 0.169, the relative viability (HCC-827; first compound 0.01 µM) was 0.301 and the relative viability (HCC-827; first compound 0.03162 µM) was 0.257. For the same molecule, the relative viability (HCC-827; first compound 0.1 µM) was 0.211, the relative viability (HCC-827; first compound 0.3162 µM) was 0.192 and the relative viability (HCC-827; first compound 1 µM) was 0.148. It also gave a relative viability (NCI-H2126; first compound 0.01 µM) of 0.659, a relative viability (NCI-H2126; first compound 0.03162 µM) of 0.646 and a relative viability (NCI-H2126; first compound 0.1 µM) of 0.553. The relative viability (NCI-H2126; first compound 0.3162 µM) was 0.576, the relative viability (NCI-H2126; first compound 1 µM) was 0.365 and the relative viability (NCI-H2085; first compound 0.01 µM) was 0.932. The relative viability (NCI-H2085; first compound 0.03162 µM) was 0.918, the relative viability (NCI-H2085; first compound 0.1 µM) was 1 and the relative viability (NCI-H2085; first compound 0.3162 µM) was 0.795. For the same molecule, the relative viability (NCI-H2085; first compound 1 µM) was 0.673, the relative viability (NCI-H23; first compound 0.01 µM) was 0.722 and the relative viability (NCI-H23; first compound 0.03162 µM) was 0.62. For the same molecule, the relative viability (NCI-H23; first compound 0.1 µM) was 0.514, the relative viability (NCI-H23; first compound 0.3162 µM) was 0.359 and the relative viability (NCI-H23; first compound 1 µM) was 0.275. The relative viability (EPLC-272H; first compound 0.01 µM) was 0.321, the relative viability (EPLC-272H; first compound 0.03162 µM) was 0.214 and the relative viability (EPLC-272H; first compound 0.1 µM) was 0.174. For the same molecule, the relative viability (EPLC-272H; first compound 0.3162 µM) was 0.12, the relative viability (EPLC-272H; first compound 1 µM) was 0.0715 and the relative viability (LU99A; first compound 0.01 µM) was 0.204. The relative viability (LU99A; first compound 0.03162 µM) was 0.165, the relative viability (LU99A; first compound 0.1 µM) was 0.142 and the relative viability (LU99A; first compound 0.3162 µM) was 0.151. The relative viability (LU99A; first compound 1 µM) was 0.109, the relative viability (NCI-H1666; first compound 0.01 µM) was 0.851 and the relative viability (NCI-H1666; first compound 0.03162 µM) was 0.838. It also gave a relative viability (NCI-H1666; first compound 0.1 µM) of 0.739, a relative viability (NCI-H1666; first compound 0.3162 µM) of 0.594 and a relative viability (NCI-H1666; first compound 1 µM) of 0.719. It also gave a relative viability (NCI-H1975; first compound 0.01 µM) of 0.309, a relative viability (NCI-H1975; first compound 0.03162 µM) of 0.27 and a relative viability (NCI-H1975; first compound 0.1 µM) of 0.254. The relative viability (NCI-H1975; first compound 0.3162 µM) was 0.221, the relative viability (NCI-H1975; first compound 1 µM) was 0.198 and the relative viability (HCC-78; first compound 0.01 µM) was 0.927. For the same molecule, the relative viability (HCC-78; first compound 0.03162 µM) was 0.903, the relative viability (HCC-78; first compound 0.1 µM) was 0.895 and the relative viability (HCC-78; first compound 0.3162 µM) was 0.895. The relative viability (HCC-78; first compound 1 µM) was 0.889, the relative viability (LOU-NH91; first compound 0.01 µM) was 0.437 and the relative viability (LOU-NH91; first compound 0.03162 µM) was 0.306. It also gave a relative viability (LOU-NH91; first compound 0.1 µM) of 0.335, a relative viability (LOU-NH91; first compound 0.3162 µM) of 0.359 and a relative viability (LOU-NH91; first compound 1 µM) of 0.349. For the same molecule, the relative viability (LXF-289; first compound 0.01 µM) was 0.817, the relative viability (LXF-289; first compound 0.03162 µM) was 0.864 and the relative viability (LXF-289; first compound 0.1 µM) was 0.949. For the same molecule, the relative viability (LXF-289; first compound 0.3162 µM) was 0.803, the relative viability (LXF-289; first compound 1 µM) was 0.626 and the relative viability (LCLC-103H; first compound 0.01 µM) was 0.464. For the same molecule, the relative viability (LCLC-103H; first compound 0.03162 µM) was 0.498, the relative viability (LCLC-103H; first compound 0.1 µM) was 0.45 and the relative viability (LCLC-103H; first compound 0.3162 µM) was 0.452. For the same molecule, the relative viability (LCLC-103H; first compound 1 µM) was 0.394, the relative viability (EMC-BAC-2; first compound 0.01 µM) was 0.457 and the relative viability (EMC-BAC-2; first compound 0.03162 µM) was 0.397. For the same molecule, the relative viability (EMC-BAC-2; first compound 0.1 µM) was 0.405, the relative viability (EMC-BAC-2; first compound 0.3162 µM) was 0.35 and the relative viability (EMC-BAC-2; first compound 1 µM) was 0.387. The relative viability (NCI-H322M; first compound 0.01 µM) was 0.595, the relative viability (NCI-H322M; first compound 0.03162 µM) was 0.617 and the relative viability (NCI-H322M; first compound 0.1 µM) was 0.571. For the same molecule, the relative viability (NCI-H322M; first compound 0.3162 µM) was 0.542, the relative viability (NCI-H322M; first compound 1 µM) was 0.379 and the relative viability (NCI-H2405; first compound 0.01 µM) was 0.998. It also gave a relative viability (NCI-H2405; first compound 0.03162 µM) of 1.25, a relative viability (NCI-H2405; first compound 0.1 µM) of 0.927 and a relative viability (NCI-H2405; first compound 0.3162 µM) of 1. For the same molecule, the relative viability (NCI-H2405; first compound 1 µM) was 0.466, the relative viability (SW 1573; first compound 0.01 µM) was 0.796 and the relative viability (SW 1573; first compound 0.03162 µM) was 0.778. It also gave a relative viability (SW 1573; first compound 0.1 µM) of 0.717, a relative viability (SW 1573; first compound 0.3162 µM) of 0.604 and a relative viability (SW 1573; first compound 1 µM) of 0.272. For the same molecule, the relative viability (RERF-LC-KJ; first compound 0.01 µM) was 0.48, the relative viability (RERF-LC-KJ; first compound 0.03162 µM) was 0.461 and the relative viability (RERF-LC-KJ; first compound 0.1 µM) was 0.441. It also gave a relative viability (RERF-LC-KJ; first compound 0.3162 µM) of 0.399, a relative viability (RERF-LC-KJ; first compound 1 µM) of 0.392 and a relative viability (NCI-H1563; first compound 0.01 µM) of 0.853. For the same molecule, the relative viability (NCI-H1563; first compound 0.03162 µM) was 0.997, the relative viability (NCI-H1563; first compound 0.1 µM) was 0.84 and the relative viability (NCI-H1563; first compound 0.3162 µM) was 0.693. The relative viability (NCI-H1563; first compound 1 µM) was 0.765, the relative viability (SW 900; first compound 0.01 µM) was 0.533 and the relative viability (SW 900; first compound 0.03162 µM) was 0.459. For the same molecule, the relative viability (SW 900; first compound 0.1 µM) was 0.452, the relative viability (SW 900; first compound 0.3162 µM) was 0.475 and the relative viability (SW 900; first compound 1 µM) was 0.374. It also gave a relative viability (NCI-H3122; first compound 0.01 µM) of 0.19, a relative viability (NCI-H3122; first compound 0.03162 µM) of 0.188 and a relative viability (NCI-H3122; first compound 0.1 µM) of 0.167. For the same molecule, the relative viability (NCI-H3122; first compound 0.3162 µM) was 0.16, the relative viability (NCI-H3122; first compound 1 µM) was 0.139 and the relative viability (SK-LU-1; first compound 0.01 µM) was 1.14. For the same molecule, the relative viability (SK-LU-1; first compound 0.03162 µM) was 0.776, the relative viability (SK-LU-1; first compound 0.1 µM) was 0.698 and the relative viability (SK-LU-1; first compound 0.3162 µM) was 0.299. It also gave a relative viability (SK-LU-1; first compound 1 µM) of 0.238.
